In assay [1] the target is Platelet-activating factor receptor (Homo sapiens, UniProt P25105). It is filed as tissue-based. Note: in other assays of this panel Not Active means under 50% inhibition at 10 µM.
The target in assay [2] is T1, 5-hydroxytryptamine receptor 2C (Homo sapiens, UniProt P28335).
T1 sequence (P28335 whole entry): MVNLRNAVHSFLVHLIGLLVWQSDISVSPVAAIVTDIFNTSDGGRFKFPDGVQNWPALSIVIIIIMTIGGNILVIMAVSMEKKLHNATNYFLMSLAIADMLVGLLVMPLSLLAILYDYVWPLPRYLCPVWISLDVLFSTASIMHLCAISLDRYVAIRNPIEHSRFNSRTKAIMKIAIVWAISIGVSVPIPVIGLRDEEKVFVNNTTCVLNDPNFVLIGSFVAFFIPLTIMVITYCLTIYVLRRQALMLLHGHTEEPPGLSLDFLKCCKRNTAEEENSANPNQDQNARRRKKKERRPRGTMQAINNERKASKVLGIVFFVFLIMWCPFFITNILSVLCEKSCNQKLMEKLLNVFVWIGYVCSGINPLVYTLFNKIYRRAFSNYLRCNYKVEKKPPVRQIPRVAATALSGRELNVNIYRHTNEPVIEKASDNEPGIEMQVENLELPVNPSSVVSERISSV
Nature of the assay: DRUGMATRIX: Serotonin (5-Hydroxytryptamine) 5-HT2C radioligand binding (ligand: [3H] Mesulergine). The settings on record: Not Active = under 50% inhibition at 10 µM; for IC50: cho-k1; for pIC50: read-out: IC50; for pKi: read-out: Ki. Type of assay: cell membranes, CHO-K1, Membrane.

Assay [3] deals with T2, 5-hydroxytryptamine receptor 1A (Rattus norvegicus, UniProt P19327).
T2 sequence (P19327 whole entry): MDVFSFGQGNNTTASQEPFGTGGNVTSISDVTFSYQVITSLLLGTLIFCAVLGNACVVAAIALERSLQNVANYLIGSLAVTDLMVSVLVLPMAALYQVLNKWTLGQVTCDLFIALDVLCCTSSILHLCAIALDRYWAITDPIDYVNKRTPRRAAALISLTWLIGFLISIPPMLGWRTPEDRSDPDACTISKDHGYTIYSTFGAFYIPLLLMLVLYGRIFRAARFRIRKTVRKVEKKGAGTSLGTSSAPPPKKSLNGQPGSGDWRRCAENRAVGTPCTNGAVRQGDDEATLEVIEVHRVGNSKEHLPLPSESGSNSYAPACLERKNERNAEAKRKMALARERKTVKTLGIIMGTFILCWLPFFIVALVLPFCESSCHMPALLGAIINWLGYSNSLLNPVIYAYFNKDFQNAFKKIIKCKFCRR
Type of assay: cell membranes, CHO-K1, Membrane. The conditions noted are these: for IC50: cho-k1.

A further assay has as its target T3, Neutrophil elastase (Homo sapiens, UniProt P08246).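 Note: inhibition of neutrophil elastase enzyme activity, measured with a p-nitroanilide-linked peptide substrate; in other assays of this panel Not Active means under 50% inhibition at 10 µM.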
T3 sequence (P08246 whole entry): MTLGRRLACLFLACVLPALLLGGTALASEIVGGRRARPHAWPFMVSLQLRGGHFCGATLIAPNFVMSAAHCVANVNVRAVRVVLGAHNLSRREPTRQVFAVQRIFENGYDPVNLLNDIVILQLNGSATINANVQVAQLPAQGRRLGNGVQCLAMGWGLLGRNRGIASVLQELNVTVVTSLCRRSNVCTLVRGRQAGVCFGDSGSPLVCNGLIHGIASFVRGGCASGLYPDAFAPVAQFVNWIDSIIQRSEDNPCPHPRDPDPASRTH
It is filed as tissue-based.

The target of assay [4] is Aldo-keto reductase family 1 member B1 (Rattus norvegicus, UniProt P07943). Nature of the assay: biochemical. Type of assay: tissue-based, Lens of camera-type eye.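 Note: inhibition of aldose reductase enzyme activity, measured with DL-glyceraldehyde as the substrate; in other assays of this panel Not Active means under 50% inhibition at 10 µM.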
Assay [5] has as its target T4, Polyunsaturated fatty acid lipoxygenase ALOX15 (Oryctolagus cuniculus, UniProt P12530).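 Note: inhibition of 15-lipoxygenase enzyme activity measured with linoleic acid as the substrate; in other assays of this panel Not Active means under 50% inhibition at 10 µM.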
T4 sequence (P12530 whole entry): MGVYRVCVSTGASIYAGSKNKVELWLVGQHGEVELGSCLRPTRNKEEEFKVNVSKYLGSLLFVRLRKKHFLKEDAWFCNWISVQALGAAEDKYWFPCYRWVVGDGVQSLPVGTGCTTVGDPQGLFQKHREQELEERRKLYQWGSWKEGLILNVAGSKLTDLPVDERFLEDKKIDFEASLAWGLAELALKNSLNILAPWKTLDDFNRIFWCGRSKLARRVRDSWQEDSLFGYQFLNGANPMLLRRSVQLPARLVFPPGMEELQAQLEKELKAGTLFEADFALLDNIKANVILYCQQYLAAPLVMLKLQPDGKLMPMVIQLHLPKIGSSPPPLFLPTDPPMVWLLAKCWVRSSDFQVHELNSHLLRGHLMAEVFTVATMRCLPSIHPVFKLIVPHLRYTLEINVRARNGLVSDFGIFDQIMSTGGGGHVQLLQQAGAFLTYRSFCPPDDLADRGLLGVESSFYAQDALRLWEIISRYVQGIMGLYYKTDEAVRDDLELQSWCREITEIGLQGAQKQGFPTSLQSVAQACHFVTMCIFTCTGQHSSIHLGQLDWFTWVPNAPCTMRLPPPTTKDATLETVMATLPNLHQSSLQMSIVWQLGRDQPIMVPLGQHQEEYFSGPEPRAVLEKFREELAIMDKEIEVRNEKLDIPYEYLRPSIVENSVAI
Nature of the assay: biochemical. It is filed as tissue-based, Reticulocytes. The settings on record: for IC50: reticulocytes.

pIC50, pKi: −log10 of the molar value.

Drawing on ChEMBL document CHEMBL1909046, “DrugMatrix in vitro pharmacology data”, this text covers IC50 and Ki for 21 compounds.

For orientation: pIC50 means the negative decadic logarithm of the IC50, by convention in mol/L. By pKi is commonly meant −log10 of the Ki, conventionally taken in molar units.

Chain of Platelet-activating factor receptor (P25105 whole entry): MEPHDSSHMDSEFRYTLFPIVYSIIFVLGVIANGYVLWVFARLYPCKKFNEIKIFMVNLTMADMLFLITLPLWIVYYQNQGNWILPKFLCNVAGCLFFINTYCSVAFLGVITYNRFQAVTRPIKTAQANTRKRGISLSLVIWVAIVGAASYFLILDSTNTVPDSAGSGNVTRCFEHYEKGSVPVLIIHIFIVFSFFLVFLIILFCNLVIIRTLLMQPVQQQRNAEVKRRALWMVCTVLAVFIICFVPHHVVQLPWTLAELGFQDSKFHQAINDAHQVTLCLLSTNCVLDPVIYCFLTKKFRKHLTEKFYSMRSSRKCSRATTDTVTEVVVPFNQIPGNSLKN

As for `CO/N=C(\C(=O)N[C@@H]1C(=O)N2C(C(=O)O)=C(COC(C)=O)CS[C@H]12)c1csc(N)n1` [CEFOTAXIME], the IC50 result (in assay [1]; in assay [2]; in assay [3]; against Neutrophil elastase; in assay [4]; in assay [5]) was “Not Active” in each case.

For the compound `CNC1=Nc2ccc(Cl)cc2C(c2ccccc2)=[N+]([O-])C1` [CHLORDIAZEPOXIDE], the IC50 entry (in assay [1]; in assay [2]; in assay [3]; at Neutrophil elastase; in assay [4]; in assay [5]) was “Not Active” each time.

In the case of `Cc1cc(O)cc(C)c1Cl` [CHLOROXYLENOL], the IC50 result (in assay [1]; in assay [2]; in assay [3]; against Neutrophil elastase; in assay [4]; in assay [5]) was “Not Active” throughout.

On to `CCCNC(=O)NS(=O)(=O)c1ccc(Cl)cc1` [CHLORPROPAMIDE], for which the IC50 result (in assay [1]; in assay [2]; in assay [3]; against Neutrophil elastase; in assay [4]; in assay [5]) was “Not Active” in each case.

On to `NS(=O)(=O)c1cc(C2(O)NC(=O)c3ccccc32)ccc1Cl` (centres undefined) [CHLORTHALIDONE], for which the IC50 result (in assay [1]; in assay [2]; in assay [3]; on Neutrophil elastase; in assay [4]; in assay [5]) was “Not Active” in each case.

On to `O=C(O)CC(O)(CC(=O)O)C(=O)O` [CITRIC ACID], for which the IC50 entry (in assay [1]; in assay [2]; in assay [3]; at Neutrophil elastase; in assay [4]; in assay [5]) was “Not Active” each time.

`CC(C)NCC(O)c1ccccc1Cl` (centres undefined) [CLORPRENALINE]: the IC50 entry (in assay [1]; in assay [2]; in assay [3]; against Neutrophil elastase; in assay [4]; in assay [5]) was “Not Active” throughout.

As to `CN1CCN(C(c2ccccc2)c2ccccc2)CC1` [CYCLIZINE], the IC50 entry (in assay [1]; in assay [3]; against Neutrophil elastase; in assay [4]; in assay [5]) was “Not Active” throughout. Also, the pIC50 in assay [2] was 5.99. Also, the pKi in assay [2] is 6.27.

In the case of `CN1C[C@@H]2C[C@H]1CN2c1cc2c(cc1F)c(=O)c(C(=O)O)cn2C1CC1` [DANOFLOXACIN], the IC50 result (in assay [1]; in assay [2]; in assay [3]; on Neutrophil elastase; in assay [4]; in assay [5]) was “Not Active” each time.

In the case of `COc1cccc2c1C(=O)c1c(O)c3c(c(O)c1C2=O)C[C@@](O)(C(C)=O)C[C@@H]3O[C@H]1C[C@H](N)[C@H](O)[C@H](C)O1` [DAUNORUBICIN], the IC50 entry (in assay [1]; in assay [2]; in assay [3]; against Neutrophil elastase; in assay [4]; in assay [5]) was “Not Active” each time.

For the compound `O=C(O)c1cc(-c2ccc(F)cc2F)ccc1O` [DIFLUNISAL], the IC50 entry (in assay [1]; in assay [2]; in assay [3]; against Neutrophil elastase; in assay [4]; in assay [5]) was “Not Active” throughout.

On to `C[S+](C)[O-]` [DIMETHYL SULFOXIDE], for which the IC50 entry (in assay [1]; in assay [2]; in assay [3]; at Neutrophil elastase; in assay [4]; in assay [5]) was “Not Active” in each case.

Turning to `CC1=NN(c2ccccc2)C(=O)C1` [EDARAVONE], the IC50 result (in assay [1]; in assay [2]; in assay [3]; at Neutrophil elastase; in assay [4]; in assay [5]) was “Not Active” in each case.

With `CC(C)C[C@H]1C(=O)N2CCC[C@H]2[C@]2(O)O[C@](NC(=O)[C@@H]3C=C4c5cccc6[nH]cc(c56)C[C@H]4N(C)C3)(C(C)C)C(=O)N12` [ERGOCRYPTINE], the IC50 entry (in assay [1]; at Neutrophil elastase; in assay [4]; in assay [5]) was “Not Active” in each case. Moreover, the pIC50 in assay [2] is 6.83; in assay [3] (read-out: IC50), 8.58. The pKi in assay [2] was 7.11; in assay [3] (read-out: Ki), 8.82.

In the case of `C[C@]12CC[C@@H]3c4ccc(O)cc4CC[C@H]3[C@@H]1C[C@@H](O)[C@@H]2O` [ESTRIOL], the IC50 result (in assay [1]; in assay [2]; in assay [3]; at Neutrophil elastase; in assay [4]) was “Not Active” each time. Moreover, the pIC50 in assay [5] (read-out: IC50) was 5.06.

Regarding `C#C[C@]1(O)CC[C@H]2[C@@H]3CCC4=CC(=O)CC[C@]4(C)[C@H]3CC[C@@]21C` [ETHISTERONE], the IC50 result (in assay [1]; in assay [2]; in assay [3]; against Neutrophil elastase; in assay [4]; in assay [5]) was “Not Active” in each case.

Consider `CC(O)(P(=O)(O)O)P(=O)(O)O` [ETIDRONIC ACID], for which the IC50 result (in assay [1]; in assay [2]; in assay [3]; at Neutrophil elastase; in assay [4]; in assay [5]) was “Not Active” throughout.

For `CC(C)(C(=O)O)c1ccc(C(O)CCCN2CCC(C(O)(c3ccccc3)c3ccccc3)CC2)cc1` (centres undefined) [FEXOFENADINE], the IC50 entry (in assay [1]; in assay [2]; in assay [3]; against Neutrophil elastase; in assay [4]; in assay [5]) was “Not Active” throughout.

For the compound `CN1CCN(c2c(F)cc3c(=O)c(C(=O)O)cn(CCF)c3c2F)CC1` [FLEROXACIN], the IC50 result (in assay [1]; in assay [2]; in assay [3]; against Neutrophil elastase; in assay [4]; in assay [5]) was “Not Active” in each case.

Consider `O=c1[nH]c(=O)n([C@H]2C[C@H](O)[C@@H](CO)O2)cc1F` [FLOXURIDINE], for which the IC50 result (in assay [1]; in assay [2]; in assay [3]; on Neutrophil elastase; in assay [4]; in assay [5]) was “Not Active” throughout.

For `COC(=O)Nc1nc2cc(C(=O)c3ccc(F)cc3)ccc2[nH]1` [FLUBENDAZOLE], the IC50 result (in assay [1]; in assay [2]; in assay [3]; on Neutrophil elastase; in assay [4]; in assay [5]) was “Not Active” each time.
